From ChEMBL document CHEMBL1201862, “PubChem BioAssay data set” (2004)
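All cell lines were grown in 96-well plates and treated with compound for 48 hours. The concentration for 50% growth inhibition is given as GI50.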 The source made the active and inactive calls. No stated cut-off is given here; in the data, active = GI50 up to about 1.1 µM and inactive = higher.

Key:
Experiment in all cases: NCI tumour cell line growth inhibition, 48 h
A498 = test system: A498
COLO 205 = test system: COLO 205
HCT-116 = test system: HCT-116
HT-29 = test system: HT-29
K562 = test system: K562
LOX IMVI = test system: LOX IMVI
MDA-N = test system: MDA-N
MOLT-4 = test system: MOLT-4
NCI-H460 = test system: NCI-H460
OVCAR-8 = test system: OVCAR-8
PC-3 = test system: PC-3
RXF 393 = test system: RXF 393
SF-268 = test system: SF-268
SK-MEL-2 = test system: SK-MEL-2
T47D = test system: T47D
TK-10 = test system: TK-10
U-251 = test system: U-251
UACC-62 = test system: UACC-62
SK-OV-3 = test system: SK-OV-3
SW-620 = test system: SW-620

Measured: GI50

CC(=O)OC1C[C@@H](C)C2(C[C@H](O)c3ccoc3)C(=O)OC[C@]13C2CCC(O)C31CO1 (some centres not stated)
inactive: A498 > 100 µM | COLO 205 > 100 µM | HCT-116 > 100 µM | HT-29 > 100 µM | K562 > 100 µM | LOX IMVI > 100 µM | MDA-N > 100 µM | MOLT-4 > 100 µM | NCI-H460 > 100 µM | OVCAR-8 > 100 µM | PC-3 > 100 µM | RXF 393 > 100 µM | SF-268 > 100 µM | SK-MEL-2 > 100 µM | T47D 1.51 µM | TK-10 > 100 µM | U-251 > 100 µM | UACC-62 > 100 µM

O=C(/C=C/c1ccccc1)OCC1=C[C@@H](O)[C@@H]2C=CO[C@@H](OC3OC(CO)C(O)C(O)C3O)[C@H]12 (some centres not stated)
inactive: A498 > 100 µM | COLO 205 > 100 µM | HCT-116 > 100 µM | HT-29 > 100 µM | LOX IMVI > 100 µM | MDA-N > 100 µM | MOLT-4 > 100 µM | OVCAR-8 > 100 µM | PC-3 > 100 µM | RXF 393 > 100 µM | SF-268 > 100 µM | SK-MEL-2 > 100 µM | SK-OV-3 > 100 µM | SW-620 > 100 µM | T47D > 100 µM | TK-10 > 100 µM | U-251 > 100 µM | UACC-62 > 100 µM

N#CC12CNCC1CN=N2 (configuration not stated)
inactive: A498 > 100 µM | COLO 205 > 100 µM | HCT-116 > 100 µM | HT-29 > 100 µM | K562 > 100 µM | LOX IMVI > 100 µM | MDA-N > 100 µM | MOLT-4 > 100 µM | NCI-H460 > 100 µM | OVCAR-8 > 100 µM | PC-3 > 100 µM | RXF 393 > 100 µM | SF-268 > 100 µM | SK-MEL-2 > 100 µM | SW-620 > 100 µM | T47D > 100 µM | TK-10 > 100 µM | U-251 > 100 µM | UACC-62 > 100 µM

CC1CC(=O)N(N(C)C)C(C#N)(C#N)C1(C#N)C#N (configuration not stated)
inactive: A498 17.8 µM | COLO 205 3 µM | HCT-116 17 µM | HT-29 17.2 µM | K562 2.81 µM | LOX IMVI 17 µM | MDA-N 18.1 µM | MOLT-4 1.87 µM | OVCAR-8 20.9 µM | PC-3 18.4 µM | RXF 393 10.6 µM | SF-268 35.8 µM | SK-MEL-2 25.5 µM | SK-OV-3 29.5 µM | SW-620 5.12 µM | T47D 15.5 µM | TK-10 16 µM | U-251 20.9 µM | UACC-62 18.3 µM

COC(=O)C1=C(O)C(C(=O)OC)[C@]2(O)[C@H](C(=O)OC)[C@H]1C[C@@H](c1ccc(O)cc1)[C@H]2C(=O)OC (some centres not stated)
inactive: A498 33.3 µM | COLO 205 31.2 µM | HCT-116 27.7 µM | HT-29 27.5 µM | K562 22.8 µM | LOX IMVI 29.2 µM | MDA-N 20.1 µM | MOLT-4 30.3 µM | NCI-H460 23.7 µM | OVCAR-8 33.4 µM | PC-3 19.9 µM | RXF 393 15.8 µM | SF-268 30.3 µM | SK-OV-3 26.5 µM | SW-620 50.7 µM | T47D 23.9 µM | TK-10 25 µM | U-251 18.3 µM | UACC-62 31.3 µM

COc1cc(C(c2cccc3ccccc23)N2C(=O)CCC2C(=O)O)cc(OC)c1OC (configuration not stated)
inactive: A498 > 100 µM | COLO 205 > 100 µM | HCT-116 > 100 µM | HT-29 > 100 µM | K562 > 100 µM | MDA-N > 100 µM | MOLT-4 > 100 µM | NCI-H460 > 100 µM | OVCAR-8 > 100 µM | PC-3 > 100 µM | RXF 393 > 100 µM | SF-268 > 100 µM | SK-MEL-2 > 100 µM | SK-OV-3 > 100 µM | SW-620 > 100 µM | T47D > 100 µM | U-251 > 100 µM | UACC-62 > 100 µM

O=C1CSC2(CC(/C=C/c3ccccc3O)=NN2c2cccc(S(=O)(=O)O)c2)N1c1nc2ccccc2s1 (configuration not stated)
inactive: A498 42.9 µM | COLO 205 29.9 µM | HCT-116 38.3 µM | HT-29 45.4 µM | K562 24.7 µM | LOX IMVI 17.3 µM | MDA-N 38.3 µM | MOLT-4 20.3 µM | NCI-H460 34.1 µM | OVCAR-8 17.9 µM | PC-3 64 µM | RXF 393 54.6 µM | SF-268 45 µM | SK-MEL-2 34 µM | SW-620 37.3 µM | T47D 19.6 µM | TK-10 20 µM | U-251 33.9 µM | UACC-62 29.4 µM

O=C1OC2C(O)C(=O)OC2C1O (configuration not stated)
inactive: A498 > 100 µM | COLO 205 > 100 µM | HCT-116 > 100 µM | HT-29 > 100 µM | K562 > 100 µM | LOX IMVI > 100 µM | MDA-N > 100 µM | MOLT-4 > 100 µM | NCI-H460 > 100 µM | OVCAR-8 > 100 µM | PC-3 > 100 µM | RXF 393 > 100 µM | SF-268 > 100 µM | SK-MEL-2 > 100 µM | SK-OV-3 > 100 µM | SW-620 > 100 µM | T47D > 100 µM | U-251 > 100 µM | UACC-62 > 100 µM

CN(C)Cc1cc(C(=O)/C=C/c2c(Cl)cccc2Cl)cc(CN(C)C)c1O
inactive: A498 9.27 µM | COLO 205 2.96 µM | HCT-116 6.04 µM | HT-29 3.07 µM | K562 3.01 µM | LOX IMVI 1.77 µM | MDA-N 3.67 µM | MOLT-4 4.19 µM | NCI-H460 3.72 µM | OVCAR-8 3.55 µM | PC-3 5.64 µM | RXF 393 5.7 µM | SF-268 11.9 µM | SW-620 4.12 µM | T47D 16.4 µM | TK-10 14.4 µM | U-251 11.4 µM

CC(C)(C)NC(=O)C12C3C4C1C1C2C3C41C(=O)NC(C)(C)C (configuration not stated)
inactive: A498 > 100 µM | COLO 205 > 100 µM | HCT-116 > 100 µM | HT-29 > 100 µM | K562 > 100 µM | LOX IMVI > 100 µM | MDA-N > 100 µM | MOLT-4 78.3 µM | NCI-H460 > 100 µM | OVCAR-8 > 100 µM | PC-3 > 100 µM | RXF 393 40.8 µM | SF-268 > 100 µM | SK-MEL-2 > 100 µM | SW-620 > 100 µM | T47D > 100 µM | TK-10 > 100 µM | U-251 > 100 µM | UACC-62 > 100 µM

CNC1(C(=O)O)CC1
inactive: A498 > 100 µM | HCT-116 > 100 µM | HT-29 > 100 µM | K562 > 100 µM | LOX IMVI > 100 µM | MDA-N > 100 µM | MOLT-4 > 100 µM | NCI-H460 > 100 µM | OVCAR-8 > 100 µM | PC-3 > 100 µM | RXF 393 > 100 µM | SF-268 > 100 µM | SW-620 > 100 µM | T47D 87.5 µM | TK-10 > 100 µM | U-251 > 100 µM | UACC-62 69.2 µM
